{
  "source": "patent US8361711B2",
  "about": "“Tools and methods useful in characterising the immunotoxic activity of xenobiotic substances” (National Institute of Public Health and the Environment, …, priority 2004, dated 2013)",
  "key": {"[1]": {"tested_on": "IFN-γ fused to a stabile form of EGFP", "test": "Clones with IFN-γ regulatory elements fused to a stabile form of EGFP", "format": "cell-based, mouse", "settings": "all tested concentrations", "experimental": "(§1) Samples were analyzed in an EPICS® XL-MCL Coulter flow cytometer with Expo v.2 Analysis Software/Expo32 Analysis Software (Applied Cytometry Systems, Sheffield, UK). or any other suitable flow cytometer. Viable and dead cells were gated separately and results were determined based on fluorescence associated with viable cells only. Regions were set in control cells and the same regions were used in induction controls and chemically challenged cells. Percent positive cells and fluorescence intensity were noted and used in further calculations.\n(§2) Index numbers were calculated from the median fluorescence intensity of viable cells. Cells incubated in the absence or presence of ionomycin/PMA were analysed separately. Each clone incubated with or without ionomycin/PMA, but without further chemicals/compounds was defined as index number=1, and the index numbers for the other exposures were calculated from this.\n(§3) One way ANOVAs (one way analysis of variance) were performed. In cases where normality failed, we used Kruskal-Wallis One Way Analysis of Variance on Ranks. If the differences between groups were statistically significant (p<0.05), we continued with tests for multiple comparisons. In normally distributed data we used Bonferroni t-test and multiple comparisons versus the control. The control was chosen to be the sample incubated in the presence or absence of ionomycin/PMA only. When normality failed we used […] for multiple comparisons versus the control."}, "[2]": {"tested_on": "IL-2 fused to a stabile form of EGFP", "test": "Clones with IL-2 regulatory elements fused to a stabile form of EGFP", "format": "cell-based, mouse", "settings": "all tested concentrations", "experimental": "as §1, §2, §3"}, "[3]": {"tested_on": "cell lines developed in the project", "procedure": "The basic cytotoxicty assay employed was LDH release. Several cytotoxicity assays were performed independently in two laboratories. […] In addition, the cytotoxicity associated with the solvent was also tested to eliminate the possibility of interference in the test outcome.\nCells were plated in 24 well microtiter plates at a density of 0.5×10^6 cells/mL and with a final volume of 1.5 mL/well. Two controls were included for each cell line, in each experiment."}},
  "data": [
    {"smiles": "CC1(C)S[C@@H]2[C@H](NC(=O)Cc3ccccc3)C(=O)N2[C@H]1C(=O)[O-].[Na+]", "note": "[penicillin G, Penicillin G (Benzylpenicillin) sodium salt]", "values": [
      {"measurement": "IFN-γ expression, stabile EGFP clone", "setting": "[1]; absence of ionomycin/PMA", "value": "failed to alter expression"},
      {"measurement": "IFN-γ expression, stabile EGFP clone", "setting": "[1]; presence of ionomycin/PMA", "value": "failed to alter expression"},
      {"measurement": "IL-2 expression, stabile EGFP clone", "setting": "[2]; absence of ionomycin/PMA", "value": "failed to alter expression"},
      {"measurement": "IL-2 expression, stabile EGFP clone", "setting": "[2]; presence of ionomycin/PMA", "value": "failed to alter expression"},
      {"measurement": "toxicity (LDH-assay)", "setting": "[3]", "value": "did not find penicillin G to be toxic"}
    ]}
  ]
}
